{"source": "paper PMC11984407", "about": "“A natural small molecule isoginkgetin alleviates hypercholesterolemia and atherosclerosis by targeting ACLY” (Theranostics, 2025)", "key": {"Apoe-/- mice": {"test_system": "Apoe-/- mice", "assay": "High cholesterol diet-induced atherosclerosis in Apoe-/- mice", "type": "in vivo, mouse", "experimental": "C57BL/6J (N000013, Gempharmatech, Nanjing, Jiangsu, China) and Apoe^-/- (T001458, Gempharmatech, Nanjing, Jiangsu, China) mice were employed. […] Alipoprotein E knockout (Apoe^-/-) mice were subjected to a 1.25% high cholesterol diet (#D12108C, RESEARCH DIETS, New Brunswick, NJ, USA). After 7 weeks of atherosclerosis induction, intraperitoneal injection of ISOGK (20 mg/kg/day) was initiated and continued for additional 8 weeks. Upon reaching the designated experimental endpoint, blood was collected retro-orbitally, and serum was isolated for subsequent biochemical parameter analysis. Subsequently, the aorta and heart tissues were processed. The aorta was subjected to Oil Red O staining (#G1260, SolarBio, Beijing, China) for en face examination, and cryosections of the aortic sinus were prepared for analysis as we previously described. The serum lipid profile was evaluated utilizing colorimetric kits from Leidu Biotech (Shenzhen, China). Liver samples were gathered, processed into a homogenate, and then centrifuged. The resulting transparent supernatant was utilized for assessing hepatic triglyceride (TG) and total cholesterol (TC) concentrations using kits obtained from commercial sources (290-63701 for TG, 294-65801 for TC; Wako, Tokyo, Japan and E-BC-K261-M for TG, E-BC-K109-M for TC; Elabscience, Wuhan, China). The levels of TG and TC were normalized against the weight of the liver tissue. Kits for antioxidant-related indicators, including GSH (S0059S, Beyotime, Shanghai, China), MDA (S0131S, Beyotime, Shanghai, China), SOD (S0101S, Beyotime, Shanghai, China), and ox-LDL (CSB-E07933m, CUSABIO, Beijing, China), were detected in mouse serum. Acly^flox/flox mice were sourced from the Shanghai Model Organisms Center (no. NM-CKO-200076). The Institutional Animal Care and Use Committee of the University of Science and Technology of China (USTC) approved all animal care procedures (approval number USTCACUC27120124102, USTCACUC212401038).\nPlasma levels of TC, TG, LDL-C, and high-density lipoprotein cholesterol (HDL-C) were determined following the manufacturer's instructions. Liver tissues (30-40 mg) were homogenized in 0.5 mL of cold PBS for hepatic TG and cholesterol measurement. A 0.4 mL homogenate was combined with 1.4 mL of a CHCl3/CH3OH mixture (2:1, v/v) and shaken overnight at room temperature. Following centrifugation at 2,500 × g for a period of 10 min, the organic phase was meticulously transferred and permitted to air-dry. The residual organic material was then reconstituted in 800 μL of ethanol containing 1% Triton X-100, whereby the ethanol served to solubilize the material.\nFast protein liquid chromatography (FPLC) was employed to analyze plasma lipoproteins using 200 μL of pooled plasma samples. The samples were initially filtered through 0.22-µm filters and subsequently loaded onto Tricorn high-performance Superose S-6 10/300GL columns (Amersham Biosciences). Elution was conducted with PBS at a constant flow rate of 0.25 mL/min. The eluted fractions (500 μL each) were subjected to analysis for TG and TC concentrations using the aforementioned commercial assay kits.\nCytokines, including C-reactive protein (CRP) (RK04303, ABclonal, Guangzhou, China), interleukin-1 beta (IL-1 β) (RK00006, ABclonal, Guangzhou, China), and interleukin-6 (IL-6) (RK00008, ABclonal, Guangzhou, China), were extracted from mouse serum and analyzed using enzyme-linked immunosorbent assay (ELISA) kits. All procedures were conducted in accordance with the instructions provided by the manufacturers.\nTissue slides from the male Apoe^-/- mice aortic sinus was washed with PBS and then permeabilized in a solution of PBS with 0.3% BSA and 0.03% Triton X-100 for 1 h at room temperature. These sections were subsequently incubated overnight with primary antibodies at a 1:400 dilution, followed by a 1-h incubation with Alexa Fluor 488 or 546-conjugated sary antibodies at a 1:2000 dilution, also at room temperature. […]"}, "hERG channel": {"biological_target": "T1, hERG channel (Homo sapiens, UniProt Q12809)", "T1 construct": "expressed in transfected cells", "T1 sequence (Q12809 whole entry)": "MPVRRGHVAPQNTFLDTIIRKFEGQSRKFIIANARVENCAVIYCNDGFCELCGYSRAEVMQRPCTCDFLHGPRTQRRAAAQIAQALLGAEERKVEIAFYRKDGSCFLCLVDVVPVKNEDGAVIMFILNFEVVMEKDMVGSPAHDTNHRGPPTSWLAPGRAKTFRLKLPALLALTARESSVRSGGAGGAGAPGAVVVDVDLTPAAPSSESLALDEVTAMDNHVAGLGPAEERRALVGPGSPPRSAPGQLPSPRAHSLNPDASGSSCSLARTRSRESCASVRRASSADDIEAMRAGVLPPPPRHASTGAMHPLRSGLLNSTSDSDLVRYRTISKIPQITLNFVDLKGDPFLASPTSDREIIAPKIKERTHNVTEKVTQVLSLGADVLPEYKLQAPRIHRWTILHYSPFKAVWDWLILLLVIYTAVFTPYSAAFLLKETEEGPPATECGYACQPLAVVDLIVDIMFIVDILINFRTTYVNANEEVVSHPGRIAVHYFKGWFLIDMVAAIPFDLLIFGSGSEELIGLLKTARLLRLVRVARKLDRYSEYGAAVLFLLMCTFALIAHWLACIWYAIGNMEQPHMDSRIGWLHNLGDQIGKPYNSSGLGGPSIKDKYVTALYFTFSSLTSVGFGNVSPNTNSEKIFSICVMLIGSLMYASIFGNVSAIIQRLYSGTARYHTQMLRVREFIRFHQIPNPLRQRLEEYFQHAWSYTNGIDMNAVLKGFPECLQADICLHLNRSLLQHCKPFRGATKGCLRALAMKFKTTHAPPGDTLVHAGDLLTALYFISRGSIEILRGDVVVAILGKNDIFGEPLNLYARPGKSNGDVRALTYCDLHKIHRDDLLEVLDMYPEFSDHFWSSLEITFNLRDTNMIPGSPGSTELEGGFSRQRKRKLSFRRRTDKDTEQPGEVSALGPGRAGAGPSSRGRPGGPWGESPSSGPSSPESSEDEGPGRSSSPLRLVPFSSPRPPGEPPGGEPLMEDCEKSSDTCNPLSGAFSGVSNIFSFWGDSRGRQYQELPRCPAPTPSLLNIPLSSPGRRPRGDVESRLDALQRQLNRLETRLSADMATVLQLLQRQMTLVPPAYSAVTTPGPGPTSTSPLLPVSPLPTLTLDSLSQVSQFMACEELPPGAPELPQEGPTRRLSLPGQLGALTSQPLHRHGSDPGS", "assay": "Manual whole-cell patch clamp on HEK cells stably expressing hERG", "type": "cell-based", "experimental": "The whole-cell patch clamp technique was employed for the experiments. Previously published works detail the methodologies and solutions used for capturing various currents in cardiomyocytes and in HEK cell lines that stably express different K^+ channels. Specifically, the standard bath solution with 5 mM K^+ consisted of 135 mM NaCl, 5 mM KCl, 2 mM CaCl2, 1 mM MgCl2, 10 mM glucose, and 10 mM HEPES, adjusted to pH 7.4 using NaOH. Meanwhile, the bath solution containing 135 mM K^+ was made of 135 mM KCl, 2 mM CaCl2, 1 mM MgCl2, 10 mM glucose, and 10 mM HEPES, with the pH set to 7.4 by adding KOH. All experiments using the patch clamp method were conducted at a controlled room temperature of 22 ± 1 °C."}, "HepG2 cells": {"test_system": "HepG2 cells", "assay": "DiI-LDL uptake assay", "type": "cell-based", "conditions": "HepG2, irrespective of dose or time", "experimental": "HepG2 cells were cultured in 24-well plates and incubated in DMEM supplemented with 2% LPDS and 20 µg/mL DiI-LDL (20614ES76, YEASEN, Shanghai, China) for four h at 37 °C in the dark. Subsequently, the cells were rinsed twice with PBS containing 0.4% albumin and then washed three times with PBS. To quantify the fluorescence, 400 µL of isopropanol was added to each well, and the plates were incubated at room temperature for 20 min with continuous shaking. Subsequently, 200 µL aliquots were analyzed using a SpectraMax M2e Microplate Reader (Molecular Devices) at wavelengths of 520-570 nm, as previously described previously."}, "[1]": {"conditions": "20 mg/kg/day i.p., 8 weeks, male or female Apoe-/- mice"}, "[2]": {"conditions": "female Apoe-/- mice, 20 mg/kg/day, 8 weeks"}, "[3]": {"conditions": "male Apoe-/- mice, 20 mg/kg/day, 8 weeks"}}, "data": [{"smiles": "COc1ccc(-c2cc(=O)c3c(O)cc(O)c(-c4cc(-c5cc(=O)c6c(O)cc(O)cc6o5)ccc4OC)c3o2)cc1", "note": "[ISOGK, Isoginkgetin]", "values": [{"measurement": "body weight vs vehicle", "setting": "Apoe-/- mice; [1]", "result": "No significant changes in body weight"}, {"measurement": "serum ALT and AST", "setting": "Apoe-/- mice; [1]", "result": "no significant changes"}, {"measurement": "liver H&E and Sirius red staining", "setting": "Apoe-/- mice; 20 mg/kg/day, 8 weeks, Apoe-/- mice", "result": "no substantial pathological alterations"}, {"measurement": "necrotic core area in aortic sinus (H&E)", "setting": "Apoe-/- mice; Apoe-/- mice, 20 mg/kg/day, 8 weeks", "result": "notable reduction in the necrotic core area"}, {"measurement": "oxidative stress markers in serum (GSH, MDA, SOD, ox-LDL)", "setting": "Apoe-/- mice; Apoe-/- mice, 8 weeks", "result": "no significant alterations"}, {"measurement": "LDLR and ACLY protein expression in liver tissues", "setting": "Apoe-/- mice; Apoe-/- mice, Western blot", "result": "no significant change in either LDLR or ACLY protein expression"}, {"measurement": "TG levels in serum and liver tissue", "setting": "Apoe-/- mice; Apoe-/- mice, irrespective of gender", "result": "notable decline in TG levels"}, {"measurement": "serum LDL-C and HDL-C", "setting": "Apoe-/- mice; female Apoe-/- mice", "result": "remained unchanged"}, {"measurement": "decrease in aortic sinus lesion area (ORO) vs vehicle", "setting": "Apoe-/- mice; [2]", "result": 45.74, "unit": "%"}, {"measurement": "decrease in liver tissue TC", "setting": "Apoe-/- mice; [2]", "result": 32.34, "unit": "%"}, {"measurement": "decrease in serum TC", "setting": "Apoe-/- mice; [2]", "result": 24.24, "unit": "%"}, {"measurement": "reduction of en face aortic lesion area (ORO) vs vehicle", "setting": "Apoe-/- mice; [2]", "result": 3.88, "unit": "%"}, {"measurement": "TG and cholesterol carried in VLDL particles (FPLC)", "setting": "Apoe-/- mice; female Apoe-/- mice, pooled plasma", "result": "significant reduction"}, {"measurement": "serum LDL-C", "setting": "Apoe-/- mice; male Apoe-/- mice", "result": "decreased the serum levels of LDL-C"}, {"measurement": "content of macrophages in the aortic sinus (immunofluorescence)", "setting": "Apoe-/- mice; [3]", "result": "substantial decline"}, {"measurement": "content of smooth muscle cells and endothelial cells in the aortic sinus", "setting": "Apoe-/- mice; [3]", "result": "remained unaltered"}, {"measurement": "decrease in aortic sinus lesion area (ORO) vs vehicle", "setting": "Apoe-/- mice; [3]", "result": 46.35, "unit": "%"}, {"measurement": "decrease in liver tissue TC", "setting": "Apoe-/- mice; [3]", "result": 29.98, "unit": "%"}, {"measurement": "decrease in serum TC", "setting": "Apoe-/- mice; [3]", "result": 27.15, "unit": "%"}, {"measurement": "expression of cholesterol efflux genes in the liver", "setting": "Apoe-/- mice; male Apoe-/- mice, qRT-PCR", "result": "no significant differences"}, {"measurement": "serum CRP, IL-1β and IL-6 (ELISA)", "setting": "Apoe-/- mice; male or female Apoe-/- mice, vehicle vs ISOGK", "result": "no statistically significant differences"}, {"measurement": "IC50", "setting": "hERG channel", "result": "> 30", "unit": "µM"}, {"measurement": "DiI-LDL uptake", "setting": "HepG2 cells", "result": "no significant effect on LDL uptake"}]}]}
